Source: ChEMBL document CHEMBL4304811, “Development of a Water-Soluble Indolylmaleimide Derivative IM-93 Showing Dual Inhibition of Ferroptosis and NETosis” (ACS Med Chem Lett, 2019)

How the values were obtained:
[1] = biological target: Ephrin type-B receptor 4 (Homo sapiens) (UniProt P54760); assay: Binding affinity to wild-type human partial length EPHB4 (H585 to G892 residues) expressed in bacterial expression system assessed as residual binding level at 10 uM by Kinomescan method relative to control
[2] = biological target: Serine/threonine-protein kinase 32C (Homo sapiens) (UniProt Q86UX6); assay: Binding affinity to wild-type human partial length YANK3 (M68 to G486 residues) expressed in bacterial expression system assessed as residual binding level at 10 uM by Kinomescan method relative to control
[3] = biological target: Interleukin-1 receptor-associated kinase 3 (Homo sapiens) (UniProt Q9Y616); assay: Binding affinity to wild-type human partial length IRAK3 (V147 to E596 residues) expressed in bacterial expression system assessed as residual binding level at 10 uM by Kinomescan method relative to control
[4] = biological target: Ephrin type-B receptor 3 (Homo sapiens) (UniProt P54753); assay: Binding affinity to wild-type human partial length EPHB3 (Q599 to T928 residues) expressed in bacterial expression system assessed as residual binding level at 10 uM by Kinomescan method relative to control
[5] = system: Leucine-rich repeat serine/threonine-protein kinase 2 (Homo sapiens), Q5S007 [G2019S]; assay: Binding affinity to human partial length LRRK2 G2019S mutant (H970 to E2527 residues) expressed in mammalian expression system assessed as residual binding level at 10 uM by Kinomescan method relative to control
[6] = system: Receptor-type tyrosine-protein kinase FLT3 (Homo sapiens), P36888 [R834Q]; assay: Binding affinity to human partial length FLT3 R834Q mutant (V592 to Y969 residues) expressed in mammalian expression system assessed as residual binding level at 10 uM by Kinomescan method relative to control
[7] = system: Epidermal growth factor receptor (Homo sapiens), P00533 [UNDEFINED MUTATION]; assay: Binding affinity to human partial length EGFR L747-S752del/P753S mutant expressed in bacterial expression system assessed as residual binding level at 10 uM by Kinomescan method relative to control
[8] = biological target: NUAK family SNF1-like kinase 1 (Homo sapiens) (UniProt O60285); assay: Binding affinity to wild-type human partial length ARK5 (E25 to I332 residues) expressed in bacterial expression system assessed as residual binding level at 10 uM by Kinomescan method relative to control
[9] = biological target: Serine/threonine-protein kinase PAK 6 (Homo sapiens) (UniProt Q9NQU5); assay: Binding affinity to wild-type human partial length PAK6 (N298 to C681 residues) expressed in bacterial expression system assessed as residual binding level at 10 uM by Kinomescan method relative to control
[10] = biological target: Mitogen-activated protein kinase kinase kinase 15 (Homo sapiens) (UniProt Q6ZN16); assay: Binding affinity to wild-type human partial length MAP3K15 (T625 to L932 residues) expressed in mammalian expression system assessed as residual binding level at 10 uM by Kinomescan method relative to control
[11] = biological target: TGF-beta receptor type-2 (Homo sapiens) (UniProt P37173); assay: Binding affinity to wild-type human partial length TGFBR2 (I218 to K567 residues) expressed in bacterial expression system assessed as residual binding level at 10 uM by Kinomescan method relative to control
[12] = biological target: LIM domain kinase 1 (Homo sapiens) (UniProt P53667); assay: Binding affinity to wild-type human full length LIMK1 (M1 to D647 residues) expressed in bacterial expression system assessed as residual binding level at 10 uM by Kinomescan method relative to control
[13] = biological target: RAF proto-oncogene serine/threonine-protein kinase (Homo sapiens) (UniProt P04049); assay: Binding affinity to wild-type human partial length RAF1 (I330 to T640 residues) expressed in bacterial expression system assessed as residual binding level at 10 uM by Kinomescan method relative to control
[14] = biological target: Mitogen-activated protein kinase 12 (Homo sapiens) (UniProt P53778); assay: Binding affinity to wild-type human full length p38-gamma (M1 to L367 residues) expressed in mammalian expression system assessed as residual binding level at 10 uM by Kinomescan method relative to control
[15] = system: Tyrosine-protein kinase ABL1 (Homo sapiens), P00519 [T315I]; assay: Binding affinity to human phosphorylated ABL1 T315I mutant (S229 to K512 residues) expressed in mammalian expression system assessed as residual binding level at 10 uM by Kinomescan method relative to control
[16] = system: Mast/stem cell growth factor receptor Kit (Homo sapiens), P10721 [L576P]; assay: Binding affinity to human partial length KIT L576P mutant (Y545 to D952 residues) expressed in bacterial expression system assessed as residual binding level at 10 uM by Kinomescan method relative to control
[17] = biological target: Tyrosine-protein kinase BTK (Homo sapiens) (UniProt Q06187); assay: Binding affinity to wild-type human full length BTK (M1 to S659 residues) expressed in mammalian expression system assessed as residual binding level at 10 uM by Kinomescan method relative to control
[18] = system: Serine/threonine-protein kinase B-raf (Homo sapiens), P15056 [V600E]; assay: Binding affinity to human partial length BRAF V600E mutant (S429 to E741 residues) expressed in mammalian expression system assessed as residual binding level at 10 uM by Kinomescan method relative to control
[19] = biological target: Ribosomal protein S6 kinase alpha-3 (Homo sapiens) (UniProt P51812); assay: Binding affinity to wild-type human partial length N- terminal RSK2 kinase domain 1 (M1 to D394 residues) expressed in mammalian expression system assessed as residual binding level at 10 uM by Kinomescan method relative to control
[20] = biological target: Bone morphogenetic protein receptor type-2 (Homo sapiens) (UniProt Q13873); assay: Binding affinity to wild-type human partial length BMPR2 (R179 to Q526 residues) expressed in mammalian expression system assessed as residual binding level at 10 uM by Kinomescan method relative to control
[21] = biological target: Homeodomain-interacting protein kinase 3 (Homo sapiens) (UniProt Q9H422); assay: Binding affinity to wild-type human partial length HIPK3 (M153 to N562 residues) expressed in mammalian expression system assessed as residual binding level at 10 uM by Kinomescan method relative to control
[22] = biological target: Tyrosine-protein kinase CSK (Homo sapiens) (UniProt P41240); assay: Binding affinity to wild-type human full length CSK (M1 to L450 residues) expressed in bacterial expression system assessed as residual binding level at 10 uM by Kinomescan method relative to control
[23] = biological target: Cyclin-dependent kinase-like 3 (Homo sapiens) (UniProt Q8IVW4); assay: Binding affinity to wild-type human partial length CDKL3 (M1 to D327 residues) expressed in bacterial expression system assessed as residual binding level at 10 uM by Kinomescan method relative to control
[24] = biological target: Misshapen-like kinase 1 (Homo sapiens) (UniProt Q8N4C8); assay: Binding affinity to wild-type human partial length MINK (M1 to K312 residues) expressed in mammalian expression system assessed as residual binding level at 10 uM by Kinomescan method relative to control

Chain of Epidermal growth factor receptor (Homo sapiens), P00533 [UNDEFINED MUTATION] (P00533 whole entry, looked up, stated change not applied, the tested form may be a part): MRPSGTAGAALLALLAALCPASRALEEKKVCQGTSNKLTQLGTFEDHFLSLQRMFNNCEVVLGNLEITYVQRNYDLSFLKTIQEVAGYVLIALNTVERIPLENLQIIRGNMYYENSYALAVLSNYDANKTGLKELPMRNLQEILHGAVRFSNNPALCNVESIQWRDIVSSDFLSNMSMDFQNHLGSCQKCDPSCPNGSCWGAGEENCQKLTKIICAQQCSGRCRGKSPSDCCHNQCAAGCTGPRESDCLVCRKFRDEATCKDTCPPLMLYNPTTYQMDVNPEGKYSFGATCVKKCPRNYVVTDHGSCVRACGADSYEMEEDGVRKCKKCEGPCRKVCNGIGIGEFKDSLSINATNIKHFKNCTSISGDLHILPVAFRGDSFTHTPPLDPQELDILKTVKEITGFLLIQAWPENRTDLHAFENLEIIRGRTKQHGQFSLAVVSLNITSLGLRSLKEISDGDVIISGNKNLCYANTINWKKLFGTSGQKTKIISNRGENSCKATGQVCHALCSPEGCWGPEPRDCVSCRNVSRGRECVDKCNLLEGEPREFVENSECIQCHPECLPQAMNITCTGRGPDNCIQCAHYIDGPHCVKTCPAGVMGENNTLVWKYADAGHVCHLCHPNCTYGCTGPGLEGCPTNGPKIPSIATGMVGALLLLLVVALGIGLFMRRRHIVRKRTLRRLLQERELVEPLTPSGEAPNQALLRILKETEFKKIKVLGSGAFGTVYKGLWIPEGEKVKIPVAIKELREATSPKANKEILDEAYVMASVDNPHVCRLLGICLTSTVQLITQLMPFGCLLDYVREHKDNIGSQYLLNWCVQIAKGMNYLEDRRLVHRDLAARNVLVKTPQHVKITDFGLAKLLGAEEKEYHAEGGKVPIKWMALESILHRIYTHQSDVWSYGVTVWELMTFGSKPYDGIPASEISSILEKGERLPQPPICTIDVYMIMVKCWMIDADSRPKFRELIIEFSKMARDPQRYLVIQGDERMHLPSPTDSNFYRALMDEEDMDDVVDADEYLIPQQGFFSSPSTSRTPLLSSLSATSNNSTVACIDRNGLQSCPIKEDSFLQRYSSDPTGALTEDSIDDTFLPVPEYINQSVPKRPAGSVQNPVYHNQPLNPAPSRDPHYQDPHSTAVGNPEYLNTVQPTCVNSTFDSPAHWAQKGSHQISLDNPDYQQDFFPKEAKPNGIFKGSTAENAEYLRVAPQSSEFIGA
Chain of Ephrin type-B receptor 4 (Homo sapiens) (P54760 whole entry, the tested form may be a part): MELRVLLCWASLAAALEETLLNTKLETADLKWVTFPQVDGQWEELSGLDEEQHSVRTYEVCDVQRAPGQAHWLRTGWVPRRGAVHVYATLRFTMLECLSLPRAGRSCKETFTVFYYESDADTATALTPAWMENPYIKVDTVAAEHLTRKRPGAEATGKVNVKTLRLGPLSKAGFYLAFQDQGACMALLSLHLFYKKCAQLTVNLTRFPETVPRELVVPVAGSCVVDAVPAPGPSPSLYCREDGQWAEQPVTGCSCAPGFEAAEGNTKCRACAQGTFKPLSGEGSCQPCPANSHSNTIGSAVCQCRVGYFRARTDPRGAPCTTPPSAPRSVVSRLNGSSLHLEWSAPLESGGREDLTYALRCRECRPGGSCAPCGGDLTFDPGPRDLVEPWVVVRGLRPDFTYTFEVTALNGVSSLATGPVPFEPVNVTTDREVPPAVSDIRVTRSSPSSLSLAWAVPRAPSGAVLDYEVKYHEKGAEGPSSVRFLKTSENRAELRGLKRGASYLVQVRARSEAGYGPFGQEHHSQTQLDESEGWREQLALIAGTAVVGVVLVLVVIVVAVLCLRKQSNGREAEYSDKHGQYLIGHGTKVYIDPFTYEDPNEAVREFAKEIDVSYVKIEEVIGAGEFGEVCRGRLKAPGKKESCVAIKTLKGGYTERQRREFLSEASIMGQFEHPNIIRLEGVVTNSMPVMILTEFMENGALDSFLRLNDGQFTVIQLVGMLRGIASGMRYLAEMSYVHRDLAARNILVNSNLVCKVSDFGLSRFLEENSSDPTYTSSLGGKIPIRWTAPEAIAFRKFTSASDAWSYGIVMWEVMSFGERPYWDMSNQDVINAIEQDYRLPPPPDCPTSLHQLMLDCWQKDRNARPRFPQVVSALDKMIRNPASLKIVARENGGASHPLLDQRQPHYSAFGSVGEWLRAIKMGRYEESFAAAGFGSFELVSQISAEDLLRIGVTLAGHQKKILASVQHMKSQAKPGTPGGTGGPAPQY
Chain of NUAK family SNF1-like kinase 1 (Homo sapiens) (O60285 whole entry, the tested form may be a part): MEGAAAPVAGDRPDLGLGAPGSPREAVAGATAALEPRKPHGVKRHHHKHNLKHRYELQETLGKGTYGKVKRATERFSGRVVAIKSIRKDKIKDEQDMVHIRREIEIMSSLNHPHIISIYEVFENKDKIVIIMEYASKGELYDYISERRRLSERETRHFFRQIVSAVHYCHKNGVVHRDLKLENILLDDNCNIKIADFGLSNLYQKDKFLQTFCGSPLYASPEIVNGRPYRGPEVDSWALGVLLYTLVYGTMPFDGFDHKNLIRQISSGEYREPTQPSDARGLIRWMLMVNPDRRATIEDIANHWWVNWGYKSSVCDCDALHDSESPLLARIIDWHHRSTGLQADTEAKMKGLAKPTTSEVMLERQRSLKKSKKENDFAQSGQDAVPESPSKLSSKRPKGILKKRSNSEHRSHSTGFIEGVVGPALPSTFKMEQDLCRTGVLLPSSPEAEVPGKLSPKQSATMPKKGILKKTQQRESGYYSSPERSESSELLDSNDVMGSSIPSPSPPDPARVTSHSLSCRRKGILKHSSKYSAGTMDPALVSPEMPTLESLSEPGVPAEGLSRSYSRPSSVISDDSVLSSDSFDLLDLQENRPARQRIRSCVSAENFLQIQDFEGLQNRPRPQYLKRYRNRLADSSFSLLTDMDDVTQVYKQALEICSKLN
Chain of Bone morphogenetic protein receptor type-2 (Homo sapiens) (Q13873 whole entry, the tested form may be a part): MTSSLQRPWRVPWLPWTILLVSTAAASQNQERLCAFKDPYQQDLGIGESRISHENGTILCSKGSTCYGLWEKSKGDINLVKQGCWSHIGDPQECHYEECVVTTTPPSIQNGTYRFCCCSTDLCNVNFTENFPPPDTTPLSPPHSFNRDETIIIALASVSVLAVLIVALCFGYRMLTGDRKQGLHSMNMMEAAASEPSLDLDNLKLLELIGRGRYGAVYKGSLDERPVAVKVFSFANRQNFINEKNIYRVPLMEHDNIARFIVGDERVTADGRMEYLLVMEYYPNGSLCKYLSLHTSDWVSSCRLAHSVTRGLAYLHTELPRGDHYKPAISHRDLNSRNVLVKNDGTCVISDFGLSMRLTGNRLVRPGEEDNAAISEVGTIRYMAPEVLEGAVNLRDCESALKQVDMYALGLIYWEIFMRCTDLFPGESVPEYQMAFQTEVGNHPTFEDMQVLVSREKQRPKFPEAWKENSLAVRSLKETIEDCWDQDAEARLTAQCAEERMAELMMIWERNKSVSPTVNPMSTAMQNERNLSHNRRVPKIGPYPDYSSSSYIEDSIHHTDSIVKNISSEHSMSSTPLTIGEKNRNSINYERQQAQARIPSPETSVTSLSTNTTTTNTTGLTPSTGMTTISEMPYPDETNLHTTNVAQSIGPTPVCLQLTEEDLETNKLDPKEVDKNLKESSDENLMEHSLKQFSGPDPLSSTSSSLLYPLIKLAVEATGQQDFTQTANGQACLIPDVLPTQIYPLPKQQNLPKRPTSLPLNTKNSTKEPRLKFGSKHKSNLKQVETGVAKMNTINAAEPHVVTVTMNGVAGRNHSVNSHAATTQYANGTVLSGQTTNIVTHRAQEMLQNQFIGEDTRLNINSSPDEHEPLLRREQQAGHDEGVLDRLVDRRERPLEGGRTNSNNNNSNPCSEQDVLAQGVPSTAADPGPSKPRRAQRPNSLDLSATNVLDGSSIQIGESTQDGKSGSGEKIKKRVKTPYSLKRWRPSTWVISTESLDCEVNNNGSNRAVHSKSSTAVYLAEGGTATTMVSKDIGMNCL
Chain of Interleukin-1 receptor-associated kinase 3 (Homo sapiens) (Q9Y616 whole entry, the tested form may be a part): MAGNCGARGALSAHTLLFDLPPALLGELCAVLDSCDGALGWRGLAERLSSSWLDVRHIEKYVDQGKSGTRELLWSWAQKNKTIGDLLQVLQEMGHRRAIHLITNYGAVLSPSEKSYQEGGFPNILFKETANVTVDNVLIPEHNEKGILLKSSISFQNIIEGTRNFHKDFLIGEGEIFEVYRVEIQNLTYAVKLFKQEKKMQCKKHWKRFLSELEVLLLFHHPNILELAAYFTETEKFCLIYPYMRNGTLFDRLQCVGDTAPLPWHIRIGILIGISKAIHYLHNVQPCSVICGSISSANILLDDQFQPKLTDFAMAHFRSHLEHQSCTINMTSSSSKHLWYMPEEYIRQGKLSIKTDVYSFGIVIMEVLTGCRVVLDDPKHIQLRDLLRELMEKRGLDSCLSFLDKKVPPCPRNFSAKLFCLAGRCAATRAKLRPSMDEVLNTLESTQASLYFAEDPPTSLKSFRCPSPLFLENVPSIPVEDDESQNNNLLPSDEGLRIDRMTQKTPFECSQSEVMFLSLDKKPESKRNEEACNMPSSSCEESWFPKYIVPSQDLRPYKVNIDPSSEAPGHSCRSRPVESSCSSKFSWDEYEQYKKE
Chain of TGF-beta receptor type-2 (Homo sapiens) (P37173 whole entry, the tested form may be a part): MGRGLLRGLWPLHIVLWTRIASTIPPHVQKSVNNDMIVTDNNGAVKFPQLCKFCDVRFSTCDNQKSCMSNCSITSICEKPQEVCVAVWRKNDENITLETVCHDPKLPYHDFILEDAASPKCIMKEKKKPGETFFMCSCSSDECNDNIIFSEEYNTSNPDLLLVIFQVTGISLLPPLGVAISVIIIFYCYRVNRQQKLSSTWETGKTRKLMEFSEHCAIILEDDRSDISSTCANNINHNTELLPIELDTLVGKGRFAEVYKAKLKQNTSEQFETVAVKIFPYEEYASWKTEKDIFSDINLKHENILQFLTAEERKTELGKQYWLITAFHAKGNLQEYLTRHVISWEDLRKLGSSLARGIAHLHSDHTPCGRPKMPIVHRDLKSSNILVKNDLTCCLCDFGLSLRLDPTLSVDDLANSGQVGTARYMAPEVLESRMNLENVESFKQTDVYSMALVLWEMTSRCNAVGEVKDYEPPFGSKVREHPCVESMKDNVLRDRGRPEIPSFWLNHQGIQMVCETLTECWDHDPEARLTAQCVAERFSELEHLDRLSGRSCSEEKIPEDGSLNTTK

CC(C)N1C(=O)C(NCCCN(C)C)=C(c2cn(C)c3ccccc23)C1=O.Cl
Activity [1]: 100%
Activity [2]: 98%
Activity [3]: 85%
Activity [4]: 99%
Activity [5]: 91%
Activity [6]: 100%
Activity [7]: 88%
Activity [8]: 94%
Activity [9]: 100%
Activity [10]: 94%
Activity [11]: 92%
Activity [12]: 100%
Activity [13]: 100%
Activity [14]: 72%
Activity [15]: 90%
Activity [16]: 87%
Activity [17]: 100%
Activity [18]: 88%
Activity [19]: 92%
Activity [20]: 100%
Activity [21]: 90%
Activity [22]: 96%
Activity [23]: 100%
Activity [24]: 94%
